Assay results as given in US12036228B2, “Treatment of seizure disorders” (Shackelford Pharma Inc., priority 2022, dated 2024).

Tests used:
[1] = tested on: seizures / EEG abnormalities in human patient; experiment: Example 8 pediatric patient with atonic seizures, myoclonic seizures and Doose syndrome (24 hour EEG, seizures); format: in vivo; details: CBD transdermal patches
Procedure: They had continued to experience several seizures per day of all types despite multiple combination regimens of prescription anti-seizure medications and a trial of THC-A transdermal patch and CBD (Charlotte's Web) oral tincture and CBD transdermal patches up until the day they were first evaluated for cannabinoid treatment (age 4.5 on Mar. 8, 2016). […] They were then prescribed 1 mg oral THC tincture three times per day. On Mar. 8, 2018, the patient returned for follow-up where it was learned that all cannabinoids had been discontinued. […] The THC-A transdermal patch was restarted at 1.875 mg/day with a reduction in EEG abnormalities to 400/24 hours. Oral THC 2.5 mg BID was then restarted with a further reduction in EEG abnormalities to 20/24 hours. […] Due to the significant reduction in brain pre-seizure activity after restarting THC and concerns that there are effective dosage variations among transdermal products, the patient was then prescribed oral THC 2.5 mg BID which they continue to take.

[2] = tested on: seizures in human patient; experiment: Example 3 human patient, GTC and complex partial seizures; format: in vivo
Description: A patient first started having GTC and complex partial (CP) seizures. […] The patient was referred for evaluation for initiation of cannabinoid/THC treatment in March 2014.

[3] = tested on: GTC seizures in human patients; experiment: THC treatment of several human patients with GTC seizures (responder rate, one-year remission rate, adverse effects); format: in vivo
Description: Several human patients commenced treatment with THC after a first visit. More details about the treatment are provided below. The group included 82 total adult patients and 12 total pediatric patients. Of those 94 patients, 34 adult patients and 10 pediatric patients had experienced at least one GTC seizure in the year preceding the first visit. At the time of first visit, 14 of the 34 adult patients and 8 of the 10 pediatric patients had never taken THC. At the time of first visit, five of the 34 adult patients and two of the 10 pediatric patients were consistently/regularly taking THC. At the time of first visit, 15 of the 34 adult patients and none of the 10 pediatric patients were inconsistently/irregularly taking THC or had taken THC at some point in the past and were no longer taking THC.
At the time of first visit, 16 of the 34 adult patients had treatment resistant epilepsy, which means the patients had persistent GTC seizures despite taking two different anti-seizure medications at, or prior to, the first visit. At the time of first visit, all 10 of the pediatric patients had treatment resistant epilepsy.
The first visit means the date when the patient first saw the doctor for evaluation for THC treatment for GTC seizures. Responder rates means the percentage of patients that had at least a 50% reduction in GTC seizure frequency over a one-year treatment period with THC. One-year remission rate means the percentage of patients that experienced no GTC seizures in a one-year period after commencing THC treatment.
All of the 34 adult patients and 10 pediatric patients were taking other anti-seizure medications or had other anti-seizure treatment at the time of the first visit. […] Those anti-seizure medications and other anti-seizure treatments included: lamotrigine, topiramate, topiramate XR, vagus nerve stimulation, phenytoin, valproic acid, zonisamide, benzodiazepine, surgery, levetiracetam, carbamazepine, oxcarbazepine, lacosamide, perampanel, clonazepam, phenobarbial, pregabalin, gabapentin, rufinamide, CBD (e.g., Epidiolex), clobazam, and felbamate. Also, all patients who were using THC oral dosages were using products that included no CBD or products that included CBD in doses well below the therapeutic dose for Epidiolex.
THC Treatment for the 82 adult patients varied. Many of the patients smoked marijuana, so the dosage and/or timing of the dosage was unknown. Because CBD is delivered at sub-therapeutic levels when marijuana is smoked, it is acceptable to attribute any therapeutic effect to THC. The label for the CBD drug Epidiolex includes dosages starting at 5 mg/kg daily for all indications, and increasing to maintenance doses of 10 mg/kg or 20 mg/kg for Lennox-Gestault Syndrome and Dravet Syndrome, and increasing to maintenance doses of 25 mg/kg per day for Tuberous Sclerosis Complex. When 1 gram of cannabis is smoked, it delivers CBD to the lungs in doses well below the therapeutic dose levels prescribed for Epidiolex. Some other patients took unknown dosages of THC orally.

[4] = tested on: Treatment Resistant Epilepsy patients; details: EAP, cited from earlier work
[5] = tested on: Treatment Resistant Epilepsy patients; experiment: EPIDIOLEX expanded access program (EAP), adults and pediatrics; format: in vivo, human; details: expected 5%
DS, LGS, TSC patients [6] = details: Ped. RCTs, cited from earlier work
DS, LGS, TSC patients [7] = experiment: EPIDIOLEX pediatric randomized controlled clinical trials (RCTs); format: in vivo, human; details: Ped. RCTs; expected 5%
[8] = tested on: GTC seizures in human patient; experiment: Example 6 human patient, GTC and CPS seizures after temporal lobectomy; format: in vivo; details: re-introduction of lamotrigine (225 mg twice a day)
Procedure: A patient with a longstanding history of GTC and CPS seizures ([…]) was evaluated for surgical intervention and underwent a right temporal lobectomy in 2013. No seizure activity was experienced for 9 months; thereafter, seizures recurred with GTC seizures occurring one time per week requiring hospitalization.
The patient was first evaluated for cannabinoid treatment on Feb. 11, 2016, […] with their parents (caregivers). They were still experiencing approximately 1 GTC seizure per month at that time. On physical examination, their neurological system was grossly within normal limits. The patient's mentation was evaluated as slow, but they were responsive and fully oriented. At the time of this first visit, they had no previous exposure to cannabinoid treatment.

C=C(C)[C@@H]1CCC(C)=C[C@H]1c1c(O)cc(CCCCC)cc1O [CBD, cannabidiol]
effect on seizures [1]: worsened seizures in a dose-related fashion | effect on seizures ([2]; CBD patches and an oral CBD spray): no improvement in their seizures | effect on seizures ([2]; oral CBD 0.48 mg/kg, or 50 mg per day, along with topiramate): no improvement | seizure outcome, individual pediatric patient ([3]; CBD-only containing product, 134 mg CBD per day and no THC): frequent “violent” GTC seizures | seizure frequency and severity, individual pediatric patient ([3]; switched to 30 mg CBD only (2015)): seizure frequency and severity increased

C=C(C)[C@@H]1CCC(C)=C[C@H]1c1c(O)cc(CCCCC)cc1O [EPIDIOLEX ®]
1 YR Seizure Remission Rate ([4]; @48 wks): 11% @48 wks | Responder Rate ([4]; TRE, @48 wks): 53% @48 wks | Adverse Events [4]: 7% | Increase in 1 YR Seizure Remission Rate over expected [5]: ~2.2X | 1 YR Seizure Remission Rate (DS, LGS, TSC patients [6]; @14 wks): 6-7% @14 wks | Responder Rate (DS, LGS, TSC patients [6]; DS, LGS, TSC, @ 14 wks): ~45% @ 14 | Adverse Events (DS, LGS, TSC patients [6]): Up to 12% | Increase in 1 YR Seizure Remission Rate over expected (DS, LGS, TSC patients [7]): ~1.4X

Nc1nnc(-c2cccc(Cl)c2Cl)c(N)n1 [lamotrigine]
effect on seizures ([2]; lamotrigine 60 mg twice daily): still having seizures | seizure frequency [8]: decreased to 1 GTC seizure about every month
